Results as given in patent US8338663B2 (priority 2001, dated 2012).

Legend:
Phytophthora infestans [1] = format: cell-based; conditions: for inhibition of mycelium growth: 2% and 0.2% (v/v) in Plich medium, isolate VK98014, day 3, 5 and 7; for effect on mycelium growth at the lowest concentration: 0.002% (=20 ppm) in Plich medium, isolate VK98014, day 3 and 5; for effect on mycelium growth through the vapour phase: 0.2% added to the medium in the adjacent wells, isolate VK98014
[2] = target: T1, H64NORS linalool/nerolidol synthase, cultivated strawberry, recombinant his-tag purified, no targeting signal, SEQ ID NO: 19 (Fragaria x ananassa, UniProt P0CV94); assay: Kinetic characterisation of the his-tag purified H64NORS-encoded protein; format: biochemical, cultivated strawberry (Fragaria×ananassa Duch. cv. Elsanta); conditions: read-out: Km for GPP
T1 sequence (P0CV94 1-519): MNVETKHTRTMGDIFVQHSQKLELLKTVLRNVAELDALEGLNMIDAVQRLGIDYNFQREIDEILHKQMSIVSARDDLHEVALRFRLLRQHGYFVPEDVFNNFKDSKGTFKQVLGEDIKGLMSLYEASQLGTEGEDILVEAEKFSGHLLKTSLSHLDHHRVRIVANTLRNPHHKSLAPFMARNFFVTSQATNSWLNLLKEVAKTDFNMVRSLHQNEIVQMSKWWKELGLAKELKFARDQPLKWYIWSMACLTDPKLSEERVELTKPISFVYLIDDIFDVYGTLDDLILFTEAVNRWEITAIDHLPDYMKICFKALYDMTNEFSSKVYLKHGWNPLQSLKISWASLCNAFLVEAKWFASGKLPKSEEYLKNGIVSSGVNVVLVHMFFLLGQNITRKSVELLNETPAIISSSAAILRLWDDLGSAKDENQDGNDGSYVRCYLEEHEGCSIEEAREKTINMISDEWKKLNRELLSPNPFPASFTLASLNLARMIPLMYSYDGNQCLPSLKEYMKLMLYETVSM
Description: The pRSETB vector harboring the H64MUT or H64NORS was used to transform E. coli strain BL21 Gold DE3 pLysE (Stratagene) as described by the manufacturer. For bacterial expression typically 1 ml of overnight liquid culture grown at 37° C. in Luria Broth (LB) medium (10 g/l tryptone, 5 g/l yeast extract, 5 g/l NaCl) supplemented with 100 mg/l ampicillin was diluted 50 times in the same medium and grown until the OD600 reached 0.4 (at 37° C.). At this stage IPTG was added to a final concentration of 1 mM in order to induce expression. After overnight growth at 16° C. the cells were harvested by centrifugation at 4000×g for 15 min. […] The cells were further processed as described by the Ni-NTA Spin Columns manufacturers (QIAGEN) for protein purification under native conditions. First elute from the column (200 μl) was further used for enzymatic activity assays.
For determination of terpene synthase identity, the His-tag purified enzymes (prepared as described above under Example 4.6) were diluted 10-fold with buffer A containing 15 mM MOPSO (pH 7.0), 10% glycerol, 10 mM MgCl2, 1 mM sodium ascorbate and 2 mM DTT. […]
The samples were also analysed by GC-MS using a HP 5890 series II gas chromatograph equipped with an HP5-MS column (30 m×0.25 mm i.d., 0.25 μm df) and HP 5972A Mass Selective Detector (Hewlett-Packard). […]

[3] = system: Fusarium verticillioides spores; assay: Spectrophotometric assay of Fusarium spore germination; format: cell-based; conditions: 10^5 spores/ml in Czapek Dox medium, day 3
Description: A spectrophotometric assay was used to monitor the onset of germination of Fusarium verticillioides spores (isolates: ITEM2282, MRC3235, MRC826, MRC826-2) in solution. The spores were diluted to a concentration of 10^5 spores/ml in Czapek Dox medium and mixed with 8-4000 ppm of linalool or nerolidol.

[4] = system: Phytophthora infestans (isolate VK98014); format: cell-based
[5] = system: Phytophthora infestans (isolate VK98014); format: cell-based; conditions: linalool versus farnesol
[6] = system: Botrytis cinerea isolated from grape and strawberry; assay: Effects of linalool and nerolidol on Botrytis mycelial growth; format: cell-based; conditions: day 7
Description: Botrytis. Nerolidol and linalool were tested in a range of concentrations (10-5000 ppm) alone and in combination through the addition to Plich medium in 6 well plates (3 ml per well). In the case of comparing the application of nerolidol and linalool alone to the combination of the two compounds, 100 ppm of the single compound was for example compared to 50+50 ppm of the two compounds together. One 6 well plate per compound was used with two different concentrations in triplicate. All wells were inoculated with a mycelium plug of Botrytis cinerea isolated from grape and strawberry and incubated at 20° C. Each day the radial growth of the mycelium was measured. The mycelium growth of all Botrytis isolates was inhibited at concentrations above 10 ppm.

[7] = system: Fusarium graminearum, Fusarium culmorum, F. verticillioides strain MRC826; format: cell-based, Fusarium spp.
Phytophthora infestans [8] = format: in vivo; conditions: cultivar Bintje, 0.05% (v/v) solution vacuum-infiltrated (ca. 0.0125% in leaves), 4 isolates, after 7 days
[9] = system: Agrobacterium tumefaciens; assay: Transformation of Agrobacterium with H64NORS binary vector (nerolidol formed from endogenous FPP); format: cell-based; conditions: inferred: no colonies obtained after transformation of 2 strains with H64NORS
[10] = substrate: CC(C)=CCC/C(C)=C/CC/C(C)=C/CO[P@@](=O)(O)OP(=O)(O)O; assay: purified protein, by the assay type; conditions: pH 7.0

CC(C)=CCCC(C)=CCCC(C)=CCO [Farnesol, reference compound]
inhibition of mycelium growth (Phytophthora infestans [1]): partial inhibition

CC(C)=CCC/C(C)=C/COP(=O)(O)OP(=O)(O)O [GPP, geranyl diphosphate]
Km [2]: > 50 µM

C=CC(C)(O)CCC=C(C)C (stereo not shown) [linalool]
effect on germination of spores ([3]; 8-4000 ppm): did not affect the germination of the spores at all | Inhibition of mycelium growth at the lowest concentration ([4]; 0.002% (=20 ppm) in Plich medium, day 3 and 5): active even at the lowest concentration | Relative activity, inhibition of mycelium growth [5]: more active than farnesol | effect on mycelium growth at the lowest concentration (Phytophthora infestans [1]): active | effect on mycelium growth through the vapour phase (Phytophthora infestans [1]): equally effective through the vapour phase as through the medium | inhibition of mycelium growth (Phytophthora infestans [1]): inhibited completely | Relative effectiveness at very high concentrations ([6]; linalool or the combination): most effective | Relative effectiveness at very high concentrations ([7]; nerolidol versus linalool, day 7): more effective

C=CC(C)(O)CCC=C(C)CCC=C(C)C (stereo not shown) [nerolidol]
concentrations showing strong inhibition of germination ([3]; 8-4000 ppm tested): above 250 ppm | Relative effectiveness, inhibition of mycelium growth ([4]; nerolidol versus linalool): slightly more effective than linalool | effect on mycelium growth, lesion formation and sporulation in infiltrated potato leaves (Phytophthora infestans [8]): strongly inhibits mycelium growth, lesion formation and sporulation | effect on mycelium growth at the lowest concentration (Phytophthora infestans [1]): strong inhibitor of mycelium growth | effect on mycelium growth through the vapour phase (Phytophthora infestans [1]): negligible | Relative effectiveness at low concentrations ([6]; nerolidol versus linalool): more effective than linalool | toxicity to Agrobacterium cells [9]: highly toxic | Relative effectiveness at low concentrations ([7]; F. graminearum and MRC826, day 7): slightly more effective than linalool

B1: H64NORS linalool/nerolidol synthase, cultivated strawberry, recombinant his-tag purified, no targeting signal, SEQ ID NO: 19 (Fragaria x ananassa) (protein)
chain: T1 sequence (P0CV94 1-519)
Km [10]: 3.2 µM
